Article PMC8151848, “Tambjamines and Prodiginines: Biocidal Activity against Trypanosoma cruzi” (Pharmaceutics, 2021)
Where two headings read alike, the source gives them in different places.

Key:
Trypanosoma brucei = test system: Trypanosoma brucei; set-up: method as in PMID 32196500; details: read-out: IC50 against Trypanosoma brucei; cited from earlier work
Entamoeba = test system: Entamoeba; set-up: method as in PMID 32196500; details: read-out: IC50 against Entamoeba; cited from earlier work
Giardia = test system: Giardia; set-up: method as in PMID 32196500; details: read-out: IC50 against Giardia; cited from earlier work
[1] = test system: trypomastigotes/amastigotes of T. cruzi (CLB strain); assay: Trypomastigote/amastigote susceptibility assay in infected L-929 fibroblasts; type: cell-based, Trypanosoma cruzi; details: for IC50: CLB strain, 96 h treatment, read-out: IC50 (µM) trypomastigote/amastigote growth inhibition
Procedure: This assay was performed in 96-well microplates. Briefly, 4 × 10^3 L-929 fibroblasts were seeded in 80 µl of MEM containing 10% FBS and antibiotics. The plate was placed overnight at 37 °C in a 5% CO2 humidified incubator to allow cell adherence. Afterward, the cells were infected with 20 µL of trypomastigotes (40,000 trypomastigotes/well (4000 mammalian cells)) diluted in the same medium. The cell:parasite ratio was 1:10. Plates were incubated for 2 h at 33 °C and 5% CO2. The medium was then discarded to dispose of nonpenetrated parasites and replaced with 200 µL of MEM without phenol red supplemented with FBS and antibiotics. After 48 h of incubation, the content of the wells was replaced with a fresh medium containing the dilutions of the compounds. The plates were returned to the incubator for an additional 96 h under the same conditions. Wells containing drug blanks, medium, fibroblasts, and untreated infected cells were included in all the plates as controls. An internal control of the reference drug (benznidazole) was also included. Next, 50 µl of substrate CPRG (diluted in 3% Triton X-100 solution) were added at a final concentration of 400 µM. After 18–20 h of incubation at 37 °C, absorbance readings were taken at 595 nm using a scanning multiwell spectrophotometer. All the assays were performed in triplicate and the experiments were run three times in different weeks. The results are expressed as the percentage of trypomastigote/amastigote growth inhibition (% T/A GI value) as follows:(2) %Trypomastigote/Amastigote growth inhibition=100−(AE−AEB)/(AC−ACB) ×100 where AE is the absorbance of the experimental group, AEB the absorbance of the compound blank, AC the absorbance of the control group, and ACB the absorbance of the culture medium blank. The IC50 values (the drug concentration that eliminates 50% of the parasites) were determined for each compound using the GraphPad Prism software.

[2] = POPC vesicles, external nitrate; ref 1 (Hernando et al., Sci. Rep., 2018); read-out: EC50 (µM) NO3–/Cl–; cited from earlier work
[3] = test system: epimastigotes of T. cruzi (CL strain, clone B5); set-up: method as in PMID 31210760; details: read-out: IC50 against epimastigotes of T. cruzi (earlier study); cited from earlier work
[4] = Trypanosoma cruzi, L929, highest concentration assayed (16 µM), n = 9, read-out: % Trypomastigote/Amastigote Growth Inhibition (%T/A GI ± SD)
[5] = IC50 for L-929 fibroblasts / IC50 for T. cruzi trypomastigotes/amastigotes

| SMILES | IC50 ([1]; Trypanosoma cruzi, L929) [µM] | inhibition at 16 µM [1, 4] [%] | Selectivity index (SI), Trypomastigotes [1, 5] | IC50 [1] [µM] | also measured |
| --- | --- | --- | --- | --- | --- |
| COC1=CC(c2cc3ccccc3[nH]2)=N/C1=C\c1[nH]c(C)cc1C [Obatoclax, reference compound] | 2.6 ± 0.4 | 88.4 ± 6 |  |  | IC50 (Trypanosoma brucei): 40 nM; IC50 (Entamoeba): 500 nM; IC50 (Giardia): 900 nM; Selectivity index (SI), Trypomastigotes [1]: 2.24 |
| CCCCCC1=C/C(=C/c2[nH]c(-c3ccc[nH]3)cc2OC)N=C1C [Natural prodigiosin, prodigiosin] |  |  | 50 | 0.1 ± 0.04 | % Trypomastigote/Amastigote Growth Inhibition (%T/A GI ± SD) ([1]; highest concentration assayed (16 µM), n = 9): 100 ± 0% |
| CCc1c(-c2ccc[nH]2)[nH]c(/C=N/C2CCCCC2)c1C [MM3] | 1.9 ± 0.45 | 97.1 ± 3.01 | 6.42 |  | EC50 [2]: 0.035 µM |
| O=C(Cn1ccnc1[N+](=O)[O-])NCc1ccccc1 [Benznidazole, reference compound] | 1.76 ± 0.34 | 76 ± 5.02 | 779.71 |  | IC50 [3]: 18000 nM |
| CCCCCC1=C/C(=C/c2[nH]c(-c3ccc[nH]3)cc2OC)N=C1C [Synthetic prodigiosin, prodigiosin] |  |  | 5.36 | 0.57 ± 0.19 | inhibition at 16 µM ([1]; Trypanosoma cruzi, L929, read-out: % Trypomastigote/Amastigote Growth Inhibition (%T/A GI ± SD)): 100% |
